Numbers after ± are expanded uncertainties.
Details: Liquid; for viscosity: Capillary tube (Ostwald / Ubbelohde) method; for mass density: Vibrating tube method

CCCCCCCO [heptan-1-ol]
Details | mass density, 298.15 K [kg/m3] | mass density, 323.15 K [kg/m3] | viscosity, 298.15 K [mPa·s] | viscosity, 323.15 K [mPa·s]
2002 kPa | 819.81 ± 1.5 | – | 5.986 ± 0.093 | –
2006 kPa | – | 802.09 ± 1.5 | – | 2.779 ± 0.044
3999 kPa | 821.2 ± 1.5 | – | 6.11 ± 0.095 | –
4003 kPa | – | 803.5 ± 1.5 | – | 2.832 ± 0.045
6000 kPa | – | 804.98 ± 1.5 | – | 2.887 ± 0.045
6006 kPa | 822.3 ± 1.5 | – | 6.233 ± 0.097 | –
7993 kPa | – | 806.39 ± 1.5 | – | 2.942 ± 0.046
8000 kPa | 823.7 ± 1.5 | – | 6.359 ± 0.099 | –
10000 kPa | – | 807.79 ± 1.5 | – | 3 ± 0.047
10002 kPa | 824.8 ± 1.6 | – | 6.487 ± 0.1 | –
12997 kPa | 826.41 ± 1.6 | – | 6.683 ± 0.1 | –
13006 kPa | – | 809.85 ± 1.5 | – | 3.085 ± 0.049
15999 kPa | 828.31 ± 1.6 | – | 6.883 ± 0.11 | –
16007 kPa | – | 811.88 ± 1.5 | – | 3.173 ± 0.05
18995 kPa | 831.3 ± 1.6 | – | 7.086 ± 0.11 | –
19004 kPa | – | 813.79 ± 1.6 | – | 3.263 ± 0.051
22001 kPa | 833.2 ± 1.6 | – | 7.297 ± 0.11 | –
22008 kPa | – | 815.68 ± 1.6 | – | 3.354 ± 0.053
25000 kPa | 835.1 ± 1.6 | – | 7.511 ± 0.12 | –
25007 kPa | – | 817.57 ± 1.6 | – | 3.446 ± 0.054

CCCCCC [hexane]
Details | mass density [kg/m3] | viscosity [mPa·s]
293.22 K, 1999 kPa | 661.4 ± 5.2 | 0.3196 ± 0.015
293.22 K, 3994 kPa | 663.53 ± 5.2 | 0.3287 ± 0.016
293.22 K, 5999 kPa | 665.43 ± 5.2 | 0.339 ± 0.016
293.22 K, 8007 kPa | 667.57 ± 5.3 | 0.3483 ± 0.017
293.22 K, 22004 kPa | 680.38 ± 5.5 | 0.4135 ± 0.02
293.22 K, 28004 kPa | 685.01 ± 5.5 | 0.4427 ± 0.021
293.23 K, 10003 kPa | 669.41 ± 5.3 | 0.3576 ± 0.017
293.23 K, 13000 kPa | 672.26 ± 5.3 | 0.3713 ± 0.018
293.23 K, 16006 kPa | 675.2 ± 5.4 | 0.3851 ± 0.018
293.23 K, 19000 kPa | 677.83 ± 5.4 | 0.399 ± 0.019
293.23 K, 25002 kPa | 682.87 ± 5.5 | 0.428 ± 0.02
293.23 K, 30001 kPa | 686.72 ± 5.5 | 0.4521 ± 0.022
313.1 K, 2005 kPa | 643.6 ± 5 | 0.2614 ± 0.012
313.1 K, 3997 kPa | 645.97 ± 5 | 0.2702 ± 0.013
313.1 K, 5999 kPa | 648.24 ± 5.1 | 0.2774 ± 0.013
313.1 K, 8000 kPa | 650.44 ± 5.1 | 0.2853 ± 0.014
313.1 K, 9999 kPa | 652.57 ± 5.1 | 0.2934 ± 0.014
313.1 K, 12997 kPa | 655.73 ± 5.2 | 0.305 ± 0.015
313.1 K, 15999 kPa | 659 ± 5.2 | 0.3165 ± 0.015
313.1 K, 18003 kPa | 661.04 ± 5.3 | 0.3243 ± 0.015
313.1 K, 21999 kPa | 664.77 ± 5.3 | 0.3399 ± 0.016
313.1 K, 24998 kPa | 667.58 ± 5.4 | 0.3504 ± 0.017
313.1 K, 28001 kPa | 670.32 ± 5.4 | 0.3631 ± 0.017
313.1 K, 30004 kPa | 672.03 ± 5.4 | 0.37 ± 0.018
333 K, 2004 kPa | 624.85 ± 4.8 | 0.2192 ± 0.01
333 K, 4002 kPa | 627.59 ± 4.9 | 0.226 ± 0.011
333 K, 6003 kPa | 630.29 ± 4.9 | 0.2328 ± 0.011
333 K, 8005 kPa | 632.82 ± 5 | 0.2396 ± 0.011
333 K, 10008 kPa | 635.78 ± 5 | 0.2467 ± 0.012
333 K, 12998 kPa | 639.36 ± 5 | 0.2565 ± 0.012
333 K, 16002 kPa | 642.74 ± 5.1 | 0.2667 ± 0.013
333 K, 19000 kPa | 646.04 ± 5.1 | 0.2766 ± 0.013
333 K, 21993 kPa | 649.32 ± 5.2 | 0.2863 ± 0.014
333 K, 25001 kPa | 652.41 ± 5.2 | 0.296 ± 0.014
333 K, 28000 kPa | 655.31 ± 5.3 | 0.3058 ± 0.015
333 K, 30005 kPa | 657.29 ± 5.3 | 0.3128 ± 0.015
353.14 K, 4001 kPa | 608.43 ± 4.7 | 0.1911 ± 0.0092
353.14 K, 8003 kPa | 614.97 ± 4.8 | 0.203 ± 0.0097
353.14 K, 15997 kPa | 625.92 ± 4.9 | 0.2264 ± 0.011
353.14 K, 21998 kPa | 633.46 ± 5 | 0.2438 ± 0.012
353.15 K, 2003 kPa | 605.15 ± 4.7 | 0.1848 ± 0.0089
353.15 K, 5997 kPa | 611.57 ± 4.8 | 0.197 ± 0.0094
353.15 K, 10009 kPa | 618 ± 4.8 | 0.2091 ± 0.01
353.15 K, 13000 kPa | 622.08 ± 4.9 | 0.2179 ± 0.01
353.15 K, 19000 kPa | 629.87 ± 5 | 0.2352 ± 0.011
